pIC50: −log10 of the molar value. “Also recorded” adds a separate entry of the source.
Assays:
Cyclin D1 = Cyclin D1 mRNA in HT-29 tumour xenografts, RT-PCR; type: in vivo, CD-1 female nude mice; conditions: HT-29 xenograft, versus vehicle
Procedure: The ability of compound 3 to modulate expression of Cyclin D1 was determined using the HT-29 colon tumour xenograft model as described in Example 26. The expression of Cyclin D1 mRNA was analyzed by real-time polymerase chain reaction as described in Example 30. […] The results of this experiment combined with the results described for the effect of compound 3 in vivo on KLF4 and P21 expression as described in Examples 30 and 31 are shown in FIG. 20.
Correlation between zinc-sensitive transcription factor MTF-1 and a cell cycle regulator Cyclin D1 expression in HT-29 colon cancer xenograft tissues is shown in FIG. 30. Based on the presence of putative MTF-1-binding DNA sequences in Cyclin D1 gene promoter region (shown in FIG. 30A), expression levels of MTF-1 and Cyclin D1 in xenograft tissues were examined by RT-PCR, using tissue RNA extract.
To examine the effect of compound 3-mediated changes in KLF4 and Cyclin D1 expressions in vivo, the expressions of respective genes in xenograft tissues of vehicle control (Lutrol) and compound 3-treated HT-29 colon cancer cell-transplanted mice were analyzed by RT-PCR (FIG. 46). Briefly, KLF4 and Cyclin D1 gene expression in HT-29 xenograft tissues after 14 days treatment with compound 3 was measured as follows. The mice subcutaneously transplanted with HT-29 cells were treated with vehicle control (administerd i.p.) or 100 mg/kg compound 3 (administered i.p.) for 14 days (n=6 in each group). Total RNA was extracted and gene expression level was determined by RT-PCR. KLF4 and Cyclin D1 gene expressions were normalized with β-actin gene expression in the same sample. […]
The tumor regression efficacy of compound 3 was assessed in compound 3-treated HT-29-transplanted athymic mice (FIG. 54A), and correlated with gene expressions of MTF-1, KLF4 and Cyclin D1 in HT-29 xenograft tissues (FIG. 54B). […] The tumor size was measured during the course of treatment using calipers (FIG. 54A). […] The tumor tissues were excised, frozen immediately and stored at −80° C. until RNA extraction and gene expression was analyzed by RT-PCR (FIG. 54B). […]

[1] = system: MDA-MB-231 breast cancer cells; experiment: XTT cell proliferation assay, MDA-MB-231; type: cell-based, human; conditions: Homo sapiens, read-out: IC50 (cell growth inhibition)
Procedure: Cell growth inhibition IC50 (μM) by compounds of Formula I was tested on various cancer cell types by XTT cell proliferation assay. The growth inhibitory effects of the compounds of Formula I as shown below for the melanoma cell line SK-MEL-2 were reproducible by Lorus Therapeutics Inc.

HT-29 cells = experiment: Effect of exogenous metals on growth inhibition of HT-29 cells (XTT); type: cell-based, human; conditions: HT-29, 5 days; for effect of exogenous zinc on growth inhibition: ZnCl2 (100 μM)
Procedure: To determine whether metal chelation is involved in the growth inhibitory activity of compounds of Formula I, exogenous metals (ZnCl2, FeCl2.4H2O, FeCl3.4H2O, MgCl2, at 100 μM) were incubated with HT-29 cells, simultaneously with control vehicle DMSO, compound 3 (5 μM), or compound 13 (25 μM), for 5 days. […] Growth inhibition by compound 13 is predicted to occur through a different mechanism than compound 3.
To determine whether chelation of copper is involved in the growth inhibitory activity of compounds of Formula I, HT-29 cells were incubated with up to 5 μM of compound 3, in the presence or absence of 25 μM CuSO4.5H20 for 5 days.
To determine whether metal chelation is involved in the growth inhibitory activity of compound 3, various concentrations of exogenous metals were incubated with HT-29 cells, simultaneously with various concentrations of compound 3, for 5 days. The exogenous metals tested were: ZnCl2 (zinc), CuSO4.5H20 (copper), FeCl2 (iron II), FeCl3.4H20 (iron III), MgCl2 (magnesium), and CaCl2.2H20 (calcium). HT-29 cells (4×10^3/well) in 100 μL volume of the growth medium were seeded in 96-well cell culture plates and incubated overnight at 37° C. The medium was removed and replaced with a total volume of 100 μl growth medium containing concentrations of metal ions as shown in FIG. 5 with compound 3 or 0.1% DMSO vehicle control. After incubation of the cells at 37° C. for 5 days, cell viability was quantitated using the XTT (sodium 3′-[1-(phenylamino-carbonyl)-3,4-tetrazolium}-bis (4-methoxy-6-nitro) benzene sulfonic acid hydrate) calorimetric assay (Roche Applied Science, Penzberg, Germany). XTT labeling reagent (1 mg/mL) was mixed with electron-coupling reagent, following the manufacturer's instructions, and 50 μl of the mixture was added directly to the cells cultured in 100 μl growth medium. The plates were further incubated at 37° C. for 4 hours and the absorbance of each well was measured by a multi-well spectrophotometer (Bio-Tek Instruments Inc.) at 460 nm. The data were adjusted relative to the blank, and were expressed as % of cell growth compared to the DMSO control.
To determine the ability of compounds 5 and 7 to chelate metals in cells, exogenous metals were added to HT-29 cells, simultaneously with various concentrations of compounds 5 and 7. Briefly, HT-29 cells were treated with various concentrations compounds 5 and 7, plus or minus copper (25 μM CuSO4.5H20) or zinc (100 μM of ZnCl2), for 5 days. Cell viability was determined by XTT assay. The effects of copper and zinc on growth inhibition of HT-29 cells are shown in FIG. 6A for compound 5 and in FIG. 6B for compound 7.
Effect of metal ion supplements on compound 3-mediated cell growth inhibition of HT-29 cells was examined by XTT cell proliferation assay.

[2] = 25 μM CuSO4, low concentrations of compound (less than 2 μM)

Row | Structure (SMILES) | Cyclin D1 expression in tumour xenografts (Cyclin D1) | pIC50 [1] | effect of exogenous copper on growth inhibition (HT-29 cells; [2]) | effect of exogenous zinc on growth inhibition (HT-29 cells) | Cyclin D1 expression in tumour xenografts (Cyclin D1; listed as compound 3) | effect of iron(III), magnesium and calcium on growth inhibition (HT-29 cells) | effect of exogenous copper on growth inhibition (HT-29 cells; 25 μM CuSO4, high concentrations of compound (>2.5 μM)) | effect of excess iron and magnesium on growth inhibition (HT-29 cells; metals at 100 μM, compound 3 5 μM)
1 | Cc1[nH]c2ccc(F)cc2c1-c1nc2c3cccnc3c3ncccc3c2[nH]1 [Compound 7] | decreased Cyclin D1 expression | 5.30 | copper impaired the activity only at low concentrations | zinc impaired the growth inhibitory activities | – | – | – | –
2 | Cc1[nH]c2ccccc2c1-c1nc2c3cccnc3c3ncccc3c2[nH]1 [Compound 3] | consistently reduced the expression of Cyclin D1 | 5.30 | Copper impaired the growth inhibitory activities | completely impaired; also recorded: impaired the growth inhibitory activities; also recorded: completely reversed by zinc only | decreased Cyclin D1 expression; also recorded: decrease in MTF-1 and Cyclin D1 gene expressions | essentially no effect | significantly enhanced the activity | no effect
